Results: patent US20080009418A1, “Selective Inhibitors” (Alchemia LTD., priority 2004, published 2008)

Columns and labels:
[1] = molecular target: T1, Human δ-opioid (DOP) (Homo sapiens, UniProt P41143); experiment: Radioligand binding, human δ-opioid (DOP) membranes, FlashPlate, [3H]-Bremazocine; details: compound at 10 μM; [3H]-Bremazocine
T1 construct: purchased Perkin Elmer Biosignal
In short: (§1)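 Cloned human receptor membranes were coated onto FlashPlate wells and incubated with radioligand and compound (added from a 0.5 mM DMSO daughter plate) for 1 hour at room temperature in the dark. Scintillation counting gave percent inhibition, with DMSO defining total and reference ligand defining non-specific binding.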

[2] = molecular target: T2, Human κ-Opioid (KOP) (Homo sapiens, UniProt P41145); experiment: Radioligand binding, human κ-opioid (KOP) membranes, filtration, [3H]-Diprenorphine; details: compound at 10 μM; [3H]-Diprenorphine
T2 construct: purchased Perkin Elmer Biosignal
In short: (§2)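 Membranes from cloned human receptors were incubated with compound and radioligand for 1 hour at room temperature. Bound ligand was collected on 0.3% PEI-soaked filters, washed with cold 50 mM Tris-HCl pH 7.4, and counted by scintillation. Percent inhibition was computed against DMSO totals and reference-ligand nonspecific wells.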

[3] = molecular target: T3, Human Melanocortin (MC3) (Homo sapiens, UniProt P41968); experiment: Radioligand binding, human melanocortin MC3 membranes, FlashPlate, [125I]-NDP-αMSH; details: compound at 10 μM; [125I]-NDP-αMSH
T3 construct: purchased Perkin Elmer Biosignal
In short: as §1

[4] = molecular target: T4, Human Melanocortin (MC4) (Homo sapiens, UniProt P32245); experiment: Radioligand binding, human melanocortin MC4 membranes, FlashPlate, [125I]-NDP-αMSH; details: compound at 10 μM; [125I]-NDP-αMSH
T4 construct: purchased Perkin Elmer Biosignal
In short: as §1

[5] = molecular target: T5, Human melanocortin (MC5) (Homo sapiens, UniProt P33032); experiment: Radioligand binding, human melanocortin MC5 membranes, FlashPlate, [125I]-NDP-αMSH; details: compound at 10 μM; [125I]-NDP-αMSH
T5 construct: purchased Perkin Elmer Biosignal
In short: as §1

[6] = molecular target: T6, Human melanin-concentrating hormone (MCH1) (Homo sapiens, UniProt Q99705); experiment: Radioligand binding, human melanin-concentrating hormone MCH1 membranes, FlashPlate, [125I]-S36057; details: compound at 10 μM; [125I]-S36057
T6 construct: purchased Perkin Elmer Biosignal
In short: as §1

[7] = molecular target: T7, Human μ-opioid (MOP) (Homo sapiens, UniProt P35372); experiment: Radioligand binding, human μ-opioid (MOP) membranes, FlashPlate, [3H]-Naloxone; details: compound at 10 μM; [3H]-Naloxone
T7 construct: purchased Perkin Elmer Biosignal
In short: as §1

[8] = molecular target: T8, Human neurokinin (NK1) (Homo sapiens, UniProt P25103); experiment: Radioligand binding, human neurokinin NK1 membranes, filtration, [125I]-Substance P; details: compound at 10 μM; [125I]-Substance P
T8 construct: purchased Perkin Elmer Biosignal
In short: as §2

[9] = molecular target: T9, Human neuropeptide Y (NPY-Y1) (Homo sapiens, UniProt P25929); experiment: Radioligand binding, human neuropeptide Y NPY-Y1 membranes, FlashPlate, [125I]-PYY; details: compound at 10 μM; [125I]-PYY
T9 construct: purchased Perkin Elmer Biosignal
T9 sequence (P25929 1-384): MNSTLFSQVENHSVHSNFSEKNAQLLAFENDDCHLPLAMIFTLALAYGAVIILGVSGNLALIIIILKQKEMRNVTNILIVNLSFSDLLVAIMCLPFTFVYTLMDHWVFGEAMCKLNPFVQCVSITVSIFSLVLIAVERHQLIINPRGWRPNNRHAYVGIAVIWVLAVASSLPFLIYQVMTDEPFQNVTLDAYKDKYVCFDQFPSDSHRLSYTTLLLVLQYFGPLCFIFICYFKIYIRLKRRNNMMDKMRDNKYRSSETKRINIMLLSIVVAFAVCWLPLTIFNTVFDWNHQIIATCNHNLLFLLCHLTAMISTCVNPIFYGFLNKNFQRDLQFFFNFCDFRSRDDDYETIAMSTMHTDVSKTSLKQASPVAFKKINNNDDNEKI
In short: as §1

[10] = molecular target: T10, Human opioid (ORL1) (Homo sapiens, UniProt P41146); experiment: Radioligand binding, human opioid ORL1 membranes, FlashPlate, [125I]-Nociceptin; details: compound at 10 μM; [125I]-Nociceptin
T10 construct: purchased Perkin Elmer Biosignal
In short: as §1

[11] = molecular target: T11, Mouse urotensin (mUR2) (Mus musculus, UniProt Q8VIH9); experiment: Radioligand binding, mouse urotensin mUR2 membranes, FlashPlate, [125I]-Urotensin II; details: compound at 10 μM; [125I]-Urotensin II
T11 construct: purchased Perkin Elmer Biosignal
T11 sequence (Q8VIH9 1-385): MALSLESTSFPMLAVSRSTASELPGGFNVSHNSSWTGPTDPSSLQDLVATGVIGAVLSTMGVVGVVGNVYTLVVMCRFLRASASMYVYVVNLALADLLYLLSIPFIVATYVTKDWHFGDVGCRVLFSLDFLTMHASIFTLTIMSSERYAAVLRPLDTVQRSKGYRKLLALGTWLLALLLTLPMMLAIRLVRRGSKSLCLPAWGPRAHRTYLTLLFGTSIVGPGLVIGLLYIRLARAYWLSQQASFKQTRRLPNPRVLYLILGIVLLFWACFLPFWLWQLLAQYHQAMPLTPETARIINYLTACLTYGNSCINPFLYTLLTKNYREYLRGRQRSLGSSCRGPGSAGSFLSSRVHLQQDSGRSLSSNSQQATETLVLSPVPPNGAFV
In short: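 Cloned mouse urotensin (mUR2) receptor membranes from Perkin Elmer Biosignal were immobilized in FlashPlate microplates using a proprietary coating. Each well got 19.5 μl buffer, then 0.5 μl of DMSO, reference ligand, or compound. Adding 5 μl of [125I]-Urotensin II, diluted to 5× final concentration in binding buffer, started binding. Plates were sealed with TopSeal-A and incubated 1 hour at room temperature in the dark. Wells were counted for 30 seconds each on a TopCount after a 60-second delay, and percentage inhibition was calculated.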

T3 sequence (P41968 whole entry): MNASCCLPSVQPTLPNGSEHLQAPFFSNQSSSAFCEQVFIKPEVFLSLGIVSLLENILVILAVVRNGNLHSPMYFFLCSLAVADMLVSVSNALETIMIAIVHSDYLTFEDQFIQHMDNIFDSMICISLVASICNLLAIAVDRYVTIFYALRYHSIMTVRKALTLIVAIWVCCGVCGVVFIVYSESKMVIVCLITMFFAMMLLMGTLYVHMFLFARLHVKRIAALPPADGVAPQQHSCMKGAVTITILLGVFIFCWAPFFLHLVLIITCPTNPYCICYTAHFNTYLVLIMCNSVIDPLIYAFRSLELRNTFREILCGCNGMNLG
T6 sequence (Q99705 whole entry): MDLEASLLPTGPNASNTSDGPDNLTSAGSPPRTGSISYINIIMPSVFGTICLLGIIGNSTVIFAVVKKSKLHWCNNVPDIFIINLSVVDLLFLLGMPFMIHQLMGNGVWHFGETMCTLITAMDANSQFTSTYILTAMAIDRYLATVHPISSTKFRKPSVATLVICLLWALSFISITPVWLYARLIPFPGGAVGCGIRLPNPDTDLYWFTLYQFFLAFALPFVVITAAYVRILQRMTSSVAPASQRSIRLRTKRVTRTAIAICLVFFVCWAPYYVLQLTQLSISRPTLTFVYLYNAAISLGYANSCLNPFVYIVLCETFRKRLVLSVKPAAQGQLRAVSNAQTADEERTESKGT
T10 sequence (P41146 whole entry): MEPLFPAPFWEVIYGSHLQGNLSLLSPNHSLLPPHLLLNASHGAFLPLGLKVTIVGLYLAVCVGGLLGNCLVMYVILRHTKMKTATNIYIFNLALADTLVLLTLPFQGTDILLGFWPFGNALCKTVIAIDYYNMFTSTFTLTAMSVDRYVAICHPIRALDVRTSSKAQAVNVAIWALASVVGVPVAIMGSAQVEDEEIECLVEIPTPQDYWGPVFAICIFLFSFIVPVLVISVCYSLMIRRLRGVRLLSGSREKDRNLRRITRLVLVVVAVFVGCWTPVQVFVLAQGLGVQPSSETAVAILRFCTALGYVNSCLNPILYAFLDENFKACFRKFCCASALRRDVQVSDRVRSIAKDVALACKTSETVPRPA
T5 sequence (P33032 whole entry): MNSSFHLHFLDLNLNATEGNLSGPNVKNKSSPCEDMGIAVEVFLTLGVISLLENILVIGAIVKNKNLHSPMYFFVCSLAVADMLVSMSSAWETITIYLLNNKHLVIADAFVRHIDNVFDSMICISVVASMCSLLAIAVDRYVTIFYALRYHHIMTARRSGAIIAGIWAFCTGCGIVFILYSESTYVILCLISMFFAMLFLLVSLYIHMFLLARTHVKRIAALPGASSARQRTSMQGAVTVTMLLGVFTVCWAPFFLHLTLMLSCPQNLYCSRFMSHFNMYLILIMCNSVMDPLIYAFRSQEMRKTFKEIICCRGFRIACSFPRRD
T4 sequence (P32245 whole entry): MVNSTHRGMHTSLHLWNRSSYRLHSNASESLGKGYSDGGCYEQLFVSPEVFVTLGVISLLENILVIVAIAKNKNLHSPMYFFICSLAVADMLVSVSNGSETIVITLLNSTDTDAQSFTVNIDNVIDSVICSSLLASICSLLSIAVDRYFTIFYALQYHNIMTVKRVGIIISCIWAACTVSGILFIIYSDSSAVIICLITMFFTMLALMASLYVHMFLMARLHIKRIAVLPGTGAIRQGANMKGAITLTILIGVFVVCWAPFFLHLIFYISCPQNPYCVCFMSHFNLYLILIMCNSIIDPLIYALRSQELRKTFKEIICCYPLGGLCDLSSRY
T1 sequence (P41143 whole entry): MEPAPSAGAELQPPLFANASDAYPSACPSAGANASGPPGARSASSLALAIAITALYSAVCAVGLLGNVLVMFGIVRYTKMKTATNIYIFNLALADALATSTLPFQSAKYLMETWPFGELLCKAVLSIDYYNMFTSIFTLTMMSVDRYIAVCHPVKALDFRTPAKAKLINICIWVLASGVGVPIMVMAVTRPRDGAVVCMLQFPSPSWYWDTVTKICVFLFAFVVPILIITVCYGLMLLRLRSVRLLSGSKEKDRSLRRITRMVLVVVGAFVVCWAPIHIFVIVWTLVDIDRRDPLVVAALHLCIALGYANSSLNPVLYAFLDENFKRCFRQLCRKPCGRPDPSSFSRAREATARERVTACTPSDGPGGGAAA
T8 sequence (P25103 whole entry): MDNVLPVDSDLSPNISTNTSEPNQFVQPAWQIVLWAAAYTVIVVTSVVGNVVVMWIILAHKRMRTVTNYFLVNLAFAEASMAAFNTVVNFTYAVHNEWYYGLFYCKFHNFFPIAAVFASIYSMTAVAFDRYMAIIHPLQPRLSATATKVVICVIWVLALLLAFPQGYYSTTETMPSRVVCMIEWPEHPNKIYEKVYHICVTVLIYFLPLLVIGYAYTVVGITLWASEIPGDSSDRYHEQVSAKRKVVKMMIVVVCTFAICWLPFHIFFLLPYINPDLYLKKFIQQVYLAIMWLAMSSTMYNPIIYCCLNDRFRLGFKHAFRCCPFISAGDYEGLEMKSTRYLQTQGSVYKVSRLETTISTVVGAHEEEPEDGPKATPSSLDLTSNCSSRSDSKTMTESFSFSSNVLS
T2 sequence (P41145 whole entry): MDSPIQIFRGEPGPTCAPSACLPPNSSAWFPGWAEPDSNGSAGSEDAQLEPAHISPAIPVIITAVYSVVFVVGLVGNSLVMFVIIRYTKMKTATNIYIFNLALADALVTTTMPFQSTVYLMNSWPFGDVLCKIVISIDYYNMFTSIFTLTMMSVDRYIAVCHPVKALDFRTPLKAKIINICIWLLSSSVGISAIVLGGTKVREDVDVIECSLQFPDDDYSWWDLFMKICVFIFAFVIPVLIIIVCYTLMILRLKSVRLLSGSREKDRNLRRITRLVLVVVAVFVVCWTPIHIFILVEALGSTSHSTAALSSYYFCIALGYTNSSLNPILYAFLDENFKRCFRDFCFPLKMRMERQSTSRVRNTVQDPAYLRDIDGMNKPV
T7 sequence (P35372 whole entry): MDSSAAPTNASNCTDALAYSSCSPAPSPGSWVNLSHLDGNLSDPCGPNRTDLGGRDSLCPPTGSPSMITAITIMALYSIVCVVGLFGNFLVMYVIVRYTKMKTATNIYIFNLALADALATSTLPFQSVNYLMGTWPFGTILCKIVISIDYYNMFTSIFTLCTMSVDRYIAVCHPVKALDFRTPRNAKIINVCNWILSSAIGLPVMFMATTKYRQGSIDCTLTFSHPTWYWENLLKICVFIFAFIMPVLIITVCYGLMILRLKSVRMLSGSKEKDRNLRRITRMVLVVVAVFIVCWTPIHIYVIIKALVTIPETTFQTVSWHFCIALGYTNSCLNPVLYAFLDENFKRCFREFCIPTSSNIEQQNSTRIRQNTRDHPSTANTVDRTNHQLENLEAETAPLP

Row | SMILES | A1 radioligand binding, percentage inhibition [1] | A2 radioligand binding, percentage inhibition [2] | A3 radioligand binding, percentage inhibition [3] | A4 radioligand binding, percentage inhibition [4] | A5 radioligand binding, percentage inhibition [5] | A6 radioligand binding, percentage inhibition [6] | A7 radioligand binding, percentage inhibition [7] | A8 radioligand binding, percentage inhibition [8] | A9 radioligand binding, percentage inhibition [9] | A10 radioligand binding, percentage inhibition [10] | A11 radioligand binding, percentage inhibition [11]
1 | COC[C@H]1OC(OCc2ccc(-c3ccccc3)cc2)[C@H](NC(=O)CCCNC(=N)N)[C@@H](OCc2cccc(O)c2)[C@@H]1O (stereo partly shown) [compound 132] | − (“−” indicates less than 50% inhibition at 10 μM) | + (“+” indicates greater than 50% inhibition at 10 μM) | − (“−” indicates less than 50% inhibition at 10 μM) | − (“−” indicates less than 50% inhibition at 10 μM) | − (“−” indicates less than 50% inhibition at 10 μM) | − (“−” indicates less than 50% inhibition at 10 μM) | + (“+” indicates greater than 50% inhibition at 10 μM) | − (“−” indicates less than 50% inhibition at 10 μM) | − (“−” indicates less than 50% inhibition at 10 μM) | − (“−” indicates less than 50% inhibition at 10 μM) | − (“−” indicates less than 50% inhibition at 10 μM)
2 | COC[C@H]1OC(OCc2ccc3ccccc3c2)[C@H](NC(=O)CNC(=N)N)[C@@H](OCc2cccc(O)c2)[C@@H]1O (stereo partly shown) [compound 133] | − (“−” indicates less than 50% inhibition at 10 μM) | − (“−” indicates less than 50% inhibition at 10 μM) | − (“−” indicates less than 50% inhibition at 10 μM) | − (“−” indicates less than 50% inhibition at 10 μM) | − (“−” indicates less than 50% inhibition at 10 μM) | − (“−” indicates less than 50% inhibition at 10 μM) | + (“+” indicates greater than 50% inhibition at 10 μM) | − (“−” indicates less than 50% inhibition at 10 μM) | − (“−” indicates less than 50% inhibition at 10 μM) | − (“−” indicates less than 50% inhibition at 10 μM) | − (“−” indicates less than 50% inhibition at 10 μM)
3 | COC[C@H]1OC(OCc2ccc3ccccc3c2)[C@H](NC(=O)CCCN)[C@@H](OCc2cccc(O)c2)[C@@H]1O (stereo partly shown) [compound 134] | − (“−” indicates less than 50% inhibition at 10 μM) | − (“−” indicates less than 50% inhibition at 10 μM) | − (“−” indicates less than 50% inhibition at 10 μM) | − (“−” indicates less than 50% inhibition at 10 μM) | − (“−” indicates less than 50% inhibition at 10 μM) | − (“−” indicates less than 50% inhibition at 10 μM) | + (“+” indicates greater than 50% inhibition at 10 μM) | − (“−” indicates less than 50% inhibition at 10 μM) | − (“−” indicates less than 50% inhibition at 10 μM) | − (“−” indicates less than 50% inhibition at 10 μM) | − (“−” indicates less than 50% inhibition at 10 μM)
4 | COC[C@H]1OC(OCc2ccc3ccccc3c2)[C@H](NC(=O)CCCNC(=N)N)[C@@H](OCc2cccc(O)c2)[C@@H]1O (stereo partly shown) [compound 135] | − (“−” indicates less than 50% inhibition at 10 μM) | − (“−” indicates less than 50% inhibition at 10 μM) | − (“−” indicates less than 50% inhibition at 10 μM) | − (“−” indicates less than 50% inhibition at 10 μM) | − (“−” indicates less than 50% inhibition at 10 μM) | − (“−” indicates less than 50% inhibition at 10 μM) | + (“+” indicates greater than 50% inhibition at 10 μM) | − (“−” indicates less than 50% inhibition at 10 μM) | − (“−” indicates less than 50% inhibition at 10 μM) | − (“−” indicates less than 50% inhibition at 10 μM) | − (“−” indicates less than 50% inhibition at 10 μM)
5 | COC[C@H]1OC(OCc2ccccc2)[C@H](NC(=O)CCCN)[C@@H](OCc2cccc(O)c2)[C@@H]1O (stereo partly shown) [compound 136] | − (“−” indicates less than 50% inhibition at 10 μM) | − (“−” indicates less than 50% inhibition at 10 μM) | − (“−” indicates less than 50% inhibition at 10 μM) | − (“−” indicates less than 50% inhibition at 10 μM) | − (“−” indicates less than 50% inhibition at 10 μM) | − (“−” indicates less than 50% inhibition at 10 μM) | − (“−” indicates less than 50% inhibition at 10 μM) | + (“+” indicates greater than 50% inhibition at 10 μM) | − (“−” indicates less than 50% inhibition at 10 μM) | − (“−” indicates less than 50% inhibition at 10 μM) | − (“−” indicates less than 50% inhibition at 10 μM)
